Reference: publication PMC12281424, “A Rac-specific competitive inhibitor of guanine nucleotide binding reduces metastasis in triple-negative breast cancer” (Cell Reports Medicine, 2025)

Assays:
PI3KC2a(h) = PI3KC2a(h) (Homo sapiens, UniProt O00443); assay: Kinase Profiler; format: biochemical
Protocol: (§1) The kinase profiler was performed by the company Eurofins (Discovery, Panlab and Cerep).

FGFR1(h) = FGFR1(h) (Homo sapiens, UniProt P11362); assay: Kinase Profiler; format: biochemical
Protocol: as §1

ATM(h) = ATM(h) (Homo sapiens, UniProt Q13315); assay: Kinase Profiler; format: biochemical
Protocol: as §1

IKKα(h) = IKKα(h) (Homo sapiens, UniProt O15111); assay: Kinase Profiler; format: biochemical
Protocol: (§2) Blood cell counts, kinase profiler, safety screen, bacterial cytotoxicity, Ames, micronucleus assays were performed by the company Eurofins (France). The kinase profiler was performed by the company Eurofins (Discovery, Panlab and Cerep).

Met(M1268T)(h) = Met(M1268T)(h) (Homo sapiens, UniProt P08581, M1250T); assay: Kinase Profiler; format: biochemical
Protocol: as §1

Muscarinic M1 = Muscarinic M1 (Homo sapiens, UniProt P11229); assay: Safety screen; format: binding
Protocol: (§3) Blood cell counts, kinase profiler, safety screen, bacterial cytotoxicity, Ames, micronucleus assays were performed by the company Eurofins (France).

PKR(h) = PKR(h) (Homo sapiens, UniProt P19525); assay: Kinase Profiler; format: biochemical
Protocol: as §1

Mnk2(h) = Mnk2(h) (Homo sapiens, UniProt Q9HBH9); assay: Kinase Profiler; format: biochemical
Protocol: as §1

ALK(h) = ALK(h) (Homo sapiens, UniProt Q9UM73); assay: Kinase Profiler; format: biochemical
Protocol: as §1

LTK(h) = LTK(h) (Homo sapiens, UniProt P29376); assay: Kinase Profiler; format: biochemical
Protocol: as §1

LIMK1(h) = LIMK1(h) (Homo sapiens, UniProt P53667); assay: Kinase Profiler; format: biochemical
Protocol: as §1

Src(1-530)(h) = Src(1-530)(h) (Homo sapiens, UniProt P12931); assay: Kinase Profiler; format: biochemical
Protocol: as §1

PEK(h) = PEK(h) (Homo sapiens, UniProt Q9NZJ5); assay: Kinase Profiler; format: biochemical
Protocol: as §1

Chemokine CCR1 = Chemokine CCR1 (Homo sapiens, UniProt P32246); assay: Safety screen; format: binding
Protocol: as §3

CaMKIß(h) = CaMKIß(h) (Homo sapiens, UniProt Q6P2M8); assay: Kinase Profiler; format: biochemical
Protocol: as §2

NEK4(h) = NEK4(h) (Homo sapiens, UniProt P51957); assay: Kinase Profiler; format: biochemical
Protocol: as §1

CaMKIIα(h) = CaMKIIα(h) (Homo sapiens, UniProt Q9UQM7); assay: Kinase Profiler; format: biochemical
Protocol: as §1

[1] = Ames fluctuation test (1st group); format: cell-based
Source text: Data S3. Ames-fluctuation assay-A41.
Test Concentration Count Positive Significance Fisher Exact Test
(# of wells) (- to +++) (p-value)
Ames fluctuation test (TA100 + S9

Plk3(h) = Plk3(h) (Homo sapiens, UniProt Q9H4B4); assay: Kinase Profiler; format: biochemical
Protocol: as §2

MEKK2(h) = MEKK2(h) (Homo sapiens, UniProt Q9Y2U5); assay: Kinase Profiler; format: biochemical
Protocol: as §1

B-Raf(h) = B-Raf(h) (Homo sapiens, UniProt P15056); assay: Kinase Profiler; format: biochemical
Protocol: as §2

EphB3(h) = EphB3(h) (Homo sapiens, UniProt P54753); assay: Kinase Profiler; format: biochemical
Chain of EphB3(h) (P54753 34-998): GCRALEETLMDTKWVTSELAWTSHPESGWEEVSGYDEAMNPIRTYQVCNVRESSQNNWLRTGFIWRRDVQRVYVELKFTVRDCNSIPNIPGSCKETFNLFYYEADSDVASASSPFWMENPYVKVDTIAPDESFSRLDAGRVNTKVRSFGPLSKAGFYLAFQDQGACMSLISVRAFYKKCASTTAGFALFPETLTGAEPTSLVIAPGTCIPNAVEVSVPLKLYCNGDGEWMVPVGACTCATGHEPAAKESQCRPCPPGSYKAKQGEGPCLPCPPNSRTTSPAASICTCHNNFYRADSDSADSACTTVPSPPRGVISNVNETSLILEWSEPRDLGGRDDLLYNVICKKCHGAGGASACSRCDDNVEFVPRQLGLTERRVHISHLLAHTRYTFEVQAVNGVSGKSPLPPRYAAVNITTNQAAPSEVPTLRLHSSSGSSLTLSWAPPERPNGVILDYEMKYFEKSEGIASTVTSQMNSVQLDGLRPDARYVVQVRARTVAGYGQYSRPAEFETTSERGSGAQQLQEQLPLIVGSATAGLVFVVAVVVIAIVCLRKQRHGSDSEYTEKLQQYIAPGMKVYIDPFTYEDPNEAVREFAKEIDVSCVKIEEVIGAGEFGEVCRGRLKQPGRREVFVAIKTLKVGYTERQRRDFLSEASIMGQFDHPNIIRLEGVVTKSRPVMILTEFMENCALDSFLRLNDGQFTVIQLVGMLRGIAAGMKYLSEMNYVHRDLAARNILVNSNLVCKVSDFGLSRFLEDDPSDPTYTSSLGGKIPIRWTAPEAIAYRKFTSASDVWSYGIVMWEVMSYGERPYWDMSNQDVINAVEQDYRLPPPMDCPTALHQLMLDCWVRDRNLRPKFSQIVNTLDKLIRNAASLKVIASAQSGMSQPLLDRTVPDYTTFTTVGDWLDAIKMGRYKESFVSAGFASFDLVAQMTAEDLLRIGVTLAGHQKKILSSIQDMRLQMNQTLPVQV
Protocol: as §2

Chain of Chemokine CCR1 (P32246 whole entry): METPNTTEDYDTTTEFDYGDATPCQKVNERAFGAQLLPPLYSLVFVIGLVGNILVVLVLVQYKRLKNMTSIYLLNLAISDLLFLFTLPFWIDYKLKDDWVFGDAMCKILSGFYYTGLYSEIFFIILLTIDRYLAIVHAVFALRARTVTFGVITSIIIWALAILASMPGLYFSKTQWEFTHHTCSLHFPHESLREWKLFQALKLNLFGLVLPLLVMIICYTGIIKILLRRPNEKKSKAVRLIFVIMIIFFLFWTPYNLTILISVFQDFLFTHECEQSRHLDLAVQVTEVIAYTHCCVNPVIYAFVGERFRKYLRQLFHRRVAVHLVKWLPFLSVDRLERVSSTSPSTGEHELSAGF
Chain of PEK(h) (Q9NZJ5 30-1116): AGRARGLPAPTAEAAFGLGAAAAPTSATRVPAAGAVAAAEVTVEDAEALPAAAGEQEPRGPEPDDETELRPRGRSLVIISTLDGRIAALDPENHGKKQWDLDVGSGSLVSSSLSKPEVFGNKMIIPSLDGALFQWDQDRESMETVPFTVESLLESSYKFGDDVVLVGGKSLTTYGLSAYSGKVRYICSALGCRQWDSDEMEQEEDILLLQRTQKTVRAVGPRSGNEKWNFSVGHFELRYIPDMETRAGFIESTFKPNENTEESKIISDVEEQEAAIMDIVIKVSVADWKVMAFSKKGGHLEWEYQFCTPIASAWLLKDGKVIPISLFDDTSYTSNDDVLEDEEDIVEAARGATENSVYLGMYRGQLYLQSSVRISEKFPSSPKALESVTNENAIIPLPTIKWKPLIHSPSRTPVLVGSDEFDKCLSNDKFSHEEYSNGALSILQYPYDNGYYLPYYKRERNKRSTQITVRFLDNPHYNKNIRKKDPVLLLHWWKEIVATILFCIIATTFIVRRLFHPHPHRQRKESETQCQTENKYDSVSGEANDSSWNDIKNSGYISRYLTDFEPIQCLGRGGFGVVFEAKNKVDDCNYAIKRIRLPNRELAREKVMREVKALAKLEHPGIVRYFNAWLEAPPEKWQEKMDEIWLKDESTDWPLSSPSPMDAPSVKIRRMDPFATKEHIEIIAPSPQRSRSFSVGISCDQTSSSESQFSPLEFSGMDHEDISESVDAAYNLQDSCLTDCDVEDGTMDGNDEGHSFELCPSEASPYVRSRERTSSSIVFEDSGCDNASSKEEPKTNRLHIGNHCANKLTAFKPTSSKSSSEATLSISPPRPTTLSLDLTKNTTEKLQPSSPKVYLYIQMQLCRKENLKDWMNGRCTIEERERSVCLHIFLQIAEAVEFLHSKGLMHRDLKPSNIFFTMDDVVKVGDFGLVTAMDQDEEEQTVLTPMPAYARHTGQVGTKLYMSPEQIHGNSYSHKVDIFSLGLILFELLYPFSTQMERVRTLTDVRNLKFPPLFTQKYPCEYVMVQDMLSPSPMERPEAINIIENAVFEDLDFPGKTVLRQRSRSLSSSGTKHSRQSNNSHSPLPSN
Chain of Muscarinic M1 (P11229 whole entry): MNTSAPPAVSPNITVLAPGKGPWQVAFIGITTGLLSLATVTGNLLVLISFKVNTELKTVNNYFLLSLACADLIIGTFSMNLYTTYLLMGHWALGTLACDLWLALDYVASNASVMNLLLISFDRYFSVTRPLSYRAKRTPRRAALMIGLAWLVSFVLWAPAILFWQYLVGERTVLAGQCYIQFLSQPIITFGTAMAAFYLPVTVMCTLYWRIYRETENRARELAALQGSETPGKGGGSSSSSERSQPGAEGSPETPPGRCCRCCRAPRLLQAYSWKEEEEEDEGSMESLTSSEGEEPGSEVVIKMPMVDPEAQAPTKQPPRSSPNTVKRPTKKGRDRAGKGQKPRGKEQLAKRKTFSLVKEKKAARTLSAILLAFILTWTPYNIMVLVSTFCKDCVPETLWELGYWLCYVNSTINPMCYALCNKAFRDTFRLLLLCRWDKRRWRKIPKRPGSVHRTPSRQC
Chain of Plk3(h) (Q9H4B4 whole entry): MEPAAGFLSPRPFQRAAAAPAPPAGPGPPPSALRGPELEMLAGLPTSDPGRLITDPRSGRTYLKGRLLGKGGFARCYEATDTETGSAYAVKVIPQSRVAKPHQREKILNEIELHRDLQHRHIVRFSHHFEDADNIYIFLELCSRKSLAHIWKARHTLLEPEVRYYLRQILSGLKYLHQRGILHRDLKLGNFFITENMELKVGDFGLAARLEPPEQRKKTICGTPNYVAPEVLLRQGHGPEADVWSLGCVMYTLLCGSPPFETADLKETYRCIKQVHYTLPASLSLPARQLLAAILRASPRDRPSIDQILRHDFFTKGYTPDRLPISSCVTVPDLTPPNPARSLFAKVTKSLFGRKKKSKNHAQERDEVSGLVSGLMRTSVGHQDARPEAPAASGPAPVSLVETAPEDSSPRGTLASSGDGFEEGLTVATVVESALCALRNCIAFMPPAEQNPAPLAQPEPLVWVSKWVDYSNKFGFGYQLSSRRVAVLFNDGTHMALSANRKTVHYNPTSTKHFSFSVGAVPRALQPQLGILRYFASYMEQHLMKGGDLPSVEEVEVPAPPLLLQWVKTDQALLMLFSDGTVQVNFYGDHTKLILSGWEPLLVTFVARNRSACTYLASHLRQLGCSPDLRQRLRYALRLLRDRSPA
Chain of NEK4(h) (P51957 whole entry): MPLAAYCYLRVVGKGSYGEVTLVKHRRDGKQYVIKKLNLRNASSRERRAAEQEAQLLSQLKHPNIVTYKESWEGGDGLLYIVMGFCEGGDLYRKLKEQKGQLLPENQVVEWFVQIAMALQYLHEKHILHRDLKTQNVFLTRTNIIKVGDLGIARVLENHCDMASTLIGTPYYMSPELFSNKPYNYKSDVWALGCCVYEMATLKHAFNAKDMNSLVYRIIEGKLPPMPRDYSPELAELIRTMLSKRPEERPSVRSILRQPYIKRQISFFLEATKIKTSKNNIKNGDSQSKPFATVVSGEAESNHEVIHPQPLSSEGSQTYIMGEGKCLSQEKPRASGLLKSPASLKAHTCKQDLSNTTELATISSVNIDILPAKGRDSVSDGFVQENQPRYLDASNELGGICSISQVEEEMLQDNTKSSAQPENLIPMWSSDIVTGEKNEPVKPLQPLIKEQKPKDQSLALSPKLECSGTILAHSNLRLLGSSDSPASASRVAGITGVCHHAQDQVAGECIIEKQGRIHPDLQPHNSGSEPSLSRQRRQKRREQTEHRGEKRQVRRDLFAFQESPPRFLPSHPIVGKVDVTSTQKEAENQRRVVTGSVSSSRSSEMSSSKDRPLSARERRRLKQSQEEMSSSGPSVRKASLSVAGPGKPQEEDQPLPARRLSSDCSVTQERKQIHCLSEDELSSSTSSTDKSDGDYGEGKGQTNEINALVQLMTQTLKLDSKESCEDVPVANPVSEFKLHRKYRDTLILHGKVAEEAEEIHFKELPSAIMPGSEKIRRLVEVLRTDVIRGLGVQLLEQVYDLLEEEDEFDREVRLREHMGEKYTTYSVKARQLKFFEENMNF
Chain of CaMKIIα(h) (Q9UQM7 whole entry): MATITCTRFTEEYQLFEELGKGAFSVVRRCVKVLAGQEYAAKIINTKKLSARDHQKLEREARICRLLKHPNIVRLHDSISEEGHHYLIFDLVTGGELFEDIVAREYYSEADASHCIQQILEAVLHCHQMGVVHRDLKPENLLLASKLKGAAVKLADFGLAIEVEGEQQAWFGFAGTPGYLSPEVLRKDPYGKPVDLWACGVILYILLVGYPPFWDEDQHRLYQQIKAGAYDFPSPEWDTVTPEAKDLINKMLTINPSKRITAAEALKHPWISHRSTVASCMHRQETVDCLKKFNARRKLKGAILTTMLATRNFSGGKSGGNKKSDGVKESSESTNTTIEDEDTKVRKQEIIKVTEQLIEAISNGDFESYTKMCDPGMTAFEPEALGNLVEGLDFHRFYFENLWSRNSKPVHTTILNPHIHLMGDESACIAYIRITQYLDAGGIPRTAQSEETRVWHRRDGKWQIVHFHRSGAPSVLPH

SMILES: COc1ccc(OC)c(NS(=O)(=O)c2ccc(NC(=O)CCSc3ccc(C)cc3)cc2)c1 [Compound A41]
- Activity(%) (PI3KC2a(h)): 95%
- Activity(%) (FGFR1(h)): 83%
- Activity(%) (ATM(h)): 114%
- Activity(%) (IKKα(h)): 107%
- Activity(%) (Met(M1268T)(h)): 108%
- % inh. (Muscarinic M1): 11%
- Activity(%) (PKR(h)): 101%
- Activity(%) (Mnk2(h)): 107%
- Activity(%) (ALK(h)): 82%
- Activity(%) (LTK(h)): 113%
- Activity(%) (LIMK1(h)): 113%
- Activity(%) (Src(1-530)(h)): 105%
- Activity(%) (PEK(h)): 102%
- % inh. (Chemokine CCR1): 2%
- Activity(%) (CaMKIß(h)): 114%
- Activity(%) (NEK4(h)): 108%
- Activity(%) (CaMKIIα(h)): 99%
- Count Positive (# of wells) ([1]; 1.0E-04 M): 1
- Count Positive (# of wells) ([1]; 1.0E-05 M): 2
- Count Positive (# of wells) ([1]; 5.0E-05 M): 0
- Count Positive (# of wells) ([1]; 5.0E-06 M): 0
- Activity(%) (Plk3(h)): 115%
- Activity(%) (MEKK2(h)): 102%
- Activity(%) (B-Raf(h)): 90%
- Activity(%) (EphB3(h)): 113%
